Read-outs that look alike come from different tables or passages of the source.
Experiments:
[1] = test system: HCV 1b genotype replicon; assay: HCV replicon assay (qRT-PCR or luciferase), genotype 1b; assay type: cell-based; conditions: Hepatitis C virus
In short: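 EC50 derived either from luciferase signal in Huh-luc/neo-ET replicon cells after 72 h compound exposure (0.2% DMSO, 37 °C) or from TaqMan qRT-PCR of replicon RNA normalized to GAPDH. MTS assay assessed cytotoxicity; combinations tested in 6-point two-fold checkerboards around each EC50.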

[2] = test system: HCV 1a genotype replicon; assay: HCV replicon assay (qRT-PCR or luciferase), genotype 1a; assay type: cell-based; conditions: Hepatitis C virus
Procedure: HCV replicon cell lines (kindly provided by R. Bartenschlager) isolated from colonies as described by Lohman et. al. (Lohman et al. (1999) Science 285: 110-113, expressly incorporated by reference in its entirety) and used for all experiments. The HCV replicon has the nucleic acid sequence set forth in EMBL Accession No.: AJ242651, the coding sequence of which is from nucleotides 1801 to 8406.
These cell lines were maintained at 37° C., 5% CO2, 100% relative humidity in DMEM (Cat#11965-084, Invitrogen), with 10% fetal calf serum (“FCS”, Invitrogen), 1% non-essential amino acids (Invitrogen), 1% of Glutamax (Invitrogen), 1% of 100× penicillin/streptomycin (Cat#15140-122, Invitrogen) and Geneticin (Cat#10131-027, Invitrogen) at 0.75 mg/ml or 0.5 mg/ml for 11-7 and Huh-luc/neo-ET cells, respectively.
EC50 values of single agent compounds and combinations were determined by HCV RNA detection using quantitative RT-PCR, according to the manufacturer's instructions, with a TAQMAN® One-Step RT-PCR Master Mix Reagents Kit (Cat#AB 4309169, Applied Biosystems) on an ABI Model 7500 thermocycler. The TaqMan primers used for detecting and quantifying HCV RNA were obtained from Integrated DNA Technologies. HCV RNA was normalized to GAPDH RNA levels in drug-treated cells, which is detected and quantified using the Human GAPDH Endogenous Control Mix (Applied Biosystems, AB 4310884E). Total cellular RNA is purified from 96-well plates using the RNAqueous 96 kit (Ambion, Cat# AM1812). Chemical agent cytotoxicity is evaluated using an MTS assay according to the manufacturer's directions (Promega).
Since clinical drug resistance often develops in viral infections following single agent therapies, there is a need to assess the additive, antagonistic, or synergistic properties of combination therapies. We used the HCV replicon system to assess the potential use of the compound of the present invention or in combination therapies with Interferon alpha, cyclosporine analogs and inhibitors targeting other HCV proteins. The acute effects of a single or combinations of drugs are studied in the “Huh-luc/neo-ET” replicon with each chemical agent titrated in an X or Y direction in a 6 point two-fold dilution curve centered around the EC50 of each drug. Briefly, replicon cells are seeded at 7,000 cells per well in 90 ul DMEM (without phenol red, Invitrogen Cat.#31053-036) per well with 10% FCS, 1% non-essential amino acids, 1% of Glutamax and 1% of 100× penicillin/streptomycin and incubated overnight at 37° C., 5% CO2, 100% relative humidity. 16-20 h after seeding cells, test compounds previously solubilized and titrated in dimethyl sulfoxide (“DMSO”) from each X plate and Y plate are diluted 1:100 in DMEM (without phenol red, Invitrogen Cat.#31053-036) with 10% FCS, 1% non-essential amino acids, 1% of Glutamax and 1% of 100× penicillin/streptomycin and added directly to the 96-well plate containing cells and growth medium at a 1:10 dilution for a final dilution of compound and DMSO of 1:1000 ([…] final concentration). Drug treated cells are incubated at 37° C., 5% CO2, 100% relative humidity for 72 hours before performing a luciferase assay using 100 ul per well BriteLite Plus (Perkin Elmer) according to the manufacturer's instructions. Data analysis utilizes the method published by Prichard and Shipman (Antiviral Research, 1990. 14:181-205). Using this method, the combination data are analyzed for antagonistic, additive, or synergistic combination effects across the entire combination surface created by the diluted compounds in combination.
The compounds of the present invention can be effective against the HCV 1b genotype. It should also be understood that the compounds of the present invention can inhibit multiple genotypes of HCV. In one embodiment compound of the present invention are active against the 1a, 1b, 2a, 2b, 3a, 4a, and 5a genotypes. […] EC50 ranges against HCV 1b and 1a are as follows: A>10 nM; B1-10 nM; C<1 nM.

[3] = Table 12, numeric values, read-out: 1b EC50
[4] = Table 12, range class, read-out: 1a EC50 Range
[5] = Table 12, range class, read-out: 1b EC50 Range
[6] = Table 12, numeric values, read-out: 1a EC50

Compound	EC50 [2, 4] [nM]	also measured
COC(=O)N[C@H](C(=O)N1CC2(CC2)C[C@H]1c1nc2ccc(C#Cc3ccc(-c4cnc([C@@H]5CC6(CC6)CN5C(=O)[C@H](NC(=O)OC)c5ccccc5)[nH]4)cc3)cc2[nH]1)C(C)C (stereo in doubt) [Example 647]	< 1	EC50 [1, 3]: 0.008 nM
COC(=O)N[C@H](C(=O)N1CC2(CC2)C[C@H]1c1ncc(-c2ccc(C#Cc3ccc4nc([C@@H]5C[C@@]6(CCCCO6)CN5C(=O)[C@@H](NC(=O)OC)C(C)C)[nH]c4c3)cc2)[nH]1)C(C)C [Example 633]		EC50 [1, 5]: < 1 nM; EC50 [2, 6]: 0.035 nM
COC(=O)N[C@H](C(=O)N1CC2(CC2)C[C@H]1c1nc2ccc(C#Cc3ccc(-c4cnc([C@@H]5CC6(CC6)CN5C(=O)[C@@H](NC(=O)OC)[C@@H](C)OCCF)[nH]4)cc3)cc2[nH]1)C(C)C [Example 547]	< 1	EC50 [1, 3]: 0.018 nM
COC(=O)N[C@H](C(=O)N1CCC[C@H]1c1ncc(-c2ccc(C#Cc3ccc4nc([C@@H]5C[C@@]6(CCC(=O)O6)CN5C(=O)[C@@H](NC(=O)OC)C(C)C)[nH]c4c3)cc2)[nH]1)C(C)C [Example 635]	< 1	EC50 [1, 5]: < 1 nM
COC(=O)N[C@H](C(=O)N1CC2(CC2)C[C@H]1c1nc2cc(C#Cc3ccc(-c4c[nH]c([C@@H]5CCCN5C(=O)[C@H](NC(=O)OC)c5ccccc5)n4)cc3)ccc2[nH]1)C(C)C [Example 579]	< 1	EC50 [1, 5]: < 1 nM
COC(=O)N[C@H](C(=O)N1CC2(CC2)C[C@H]1c1ncc(-c2ccc(C#Cc3ccc4nc([C@@H]5C[C@]6(CCCOC6)CN5C(=O)[C@@H](NC(=O)OC)C(C)C)[nH]c4c3)cc2)[nH]1)C(C)C [Example 639]	< 1	EC50 [1, 3]: 0.008 nM
COC(=O)N[C@H](C(=O)N1C[C@]2(C[C@H]1c1ncc(-c3ccc(C#Cc4ccc5nc([C@@H]6CC7(CC7)CN6C(=O)[C@@H](NC(=O)OC)C(C)C)[nH]c5c4)cc3)[nH]1)CC2(F)F)C(C)C [Example 614]	< 1	EC50 [1, 3]: 0.004 nM
COC(=O)N[C@H](C(=O)N1CCC[C@H]1c1nc(-c2ccc(C#Cc3ccc4[nH]c([C@@H]5C[C@@]6(CCOC6)CN5C(=O)[C@@H](NC(=O)OC)C(C)C)nc4c3)cc2)c[nH]1)C(C)C [Example 630]	< 1	EC50 [1, 3]: 0.011 nM
COC(=O)N[C@H](C(=O)N1C[C@]2(CCCO2)C[C@H]1c1ncc(-c2ccc(C#Cc3ccc4nc([C@@H]5C[C@@]6(CCCO6)CN5C(=O)[C@@H](NC(=O)OC)C(C)C)[nH]c4c3)cc2)[nH]1)C(C)C [Example 625]	< 1	EC50 [1, 5]: < 1 nM
COC(=O)N[C@@H](CCCCNC(N)=O)C(=O)N1CCC[C@H]1c1nc(-c2ccc(C#Cc3ccc4[nH]c([C@@H]5CC6(CC6)CN5C(=O)[C@@H](NC(=O)OC)C(C)C)nc4c3)cc2)c[nH]1 [Example 620]	< 1	
COC(=O)N[C@H](C(=O)N1CC2(CC2)C[C@H]1c1nc2ccc(C#Cc3ccc(-c4cnc([C@@H]5C[C@H]6C[C@H]6N5C(=O)[C@H](NC(=O)OC)c5cc(F)cc(F)c5)[nH]4)cc3)cc2[nH]1)C(C)C [Example 683]	< 1	
COC(=O)N[C@@H](C(=O)N1CC2(CC2)C[C@H]1c1ncc(-c2ccc(C#Cc3ccc4nc([C@@H]5CC6(CC6)CN5C(=O)[C@H](NC(=O)OC)c5cccc(F)c5)[nH]c4c3)cc2)[nH]1)c1cccc(F)c1 [Example 677]	1 to 10	
COC(=O)N[C@H](C(=O)N1CC2(CC2)C[C@H]1c1ncc(-c2ccc(C#Cc3ccc4nc([C@@H]5CC6(CC6)CN5C(=O)[C@H](NC(=O)OC)c5ccccc5F)[nH]c4c3)cc2)[nH]1)C(C)C [Example 652]	< 1	
COC(=O)N[C@H](C(=O)N1CC2(CC2)C[C@H]1c1nc(-c2ccc(C#Cc3ccc4[nH]c([C@@H]5C[C@]6(CCCO6)CN5C(=O)[C@@H](NC(=O)OC)C(C)C)nc4c3)cc2)c[nH]1)C(C)C [Example 626]		EC50 [2, 6]: 1.34 nM
COC(=O)N[C@H](C(=O)N1CCC[C@H]1c1nc(-c2ccc(C#Cc3ccc4[nH]c([C@@H]5C[C@]6(CCCO6)CN5C(=O)[C@@H](NC(=O)OC)C(C)C)nc4c3)cc2)c[nH]1)C(C)C [Example 557]	1 to 10	
COC(=O)N[C@H](C(=O)N1CC2(CC2)C[C@H]1c1nc2ccc(C#Cc3ccc(-c4cnc([C@@H]5C[C@H]6C[C@H]6N5C(=O)[C@H](NC(=O)OC)c5cccc(F)c5)[nH]4)cc3)cc2[nH]1)C(C)C [Example 684]	< 1	
CC[C@@H](C)[C@H](NC(=O)OC)C(=O)N1CCC[C@H]1c1ncc(-c2ccc(C#Cc3ccc4nc([C@@H]5CC6(CC6)CN5C(=O)[C@@H](NC(=O)OC)C(C)C)[nH]c4c3)cc2)[nH]1 [Example 605]	< 1	
COC(=O)N[C@@H](C(=O)N1CC2(CC2)C[C@H]1c1ncc(-c2ccc(C#Cc3ccc4nc([C@@H]5CC6(CC6)CN5C(=O)[C@H](NC(=O)OC)c5cccs5)[nH]c4c3)cc2)[nH]1)c1cccs1 [Example 680]	> 10	
COC(=O)N[C@@H](CNC(N)=O)C(=O)N1CCC[C@H]1c1ncc(-c2ccc(C#Cc3ccc4nc([C@@H]5CC6(CC6)CN5C(=O)[C@@H](NC(=O)OC)C(C)C)[nH]c4c3)cc2)[nH]1 [Example 550]	1 to 10	
COC(=O)N[C@H](C(=O)N1CC2(CC2)C[C@H]1c1nc(-c2ccc(C#Cc3ccc4[nH]c([C@@H]5CC6(CC6)CN5C(=O)[C@@H](NC(=O)OC)C(C)C)nc4c3)cc2)c(Cl)[nH]1)C(C)C [Example 588]	< 1	
COC(=O)N[C@H](C(=O)N1C[C@]2(CNC(=O)O2)C[C@H]1c1ncc(-c2ccc(C#Cc3ccc4nc([C@@H]5CC6(CC6)CN5C(=O)[C@@H](NC(=O)OC)C(C)C)[nH]c4c3)cc2)[nH]1)C(C)C [Example 617]		EC50 ([2]; read-out: 1a EC50 Range, Table 12, range class): 1 to 10 nM
COC(=O)N[C@H](C(=O)N1CC2(CC2)C[C@H]1c1ncc(-c2ccc(C#Cc3ccc4nc([C@@H]5CC6(CC6)CN5C(=O)[C@@H](NC(=O)OC)C5CC5)[nH]c4c3)cc2)[nH]1)C(C)C [Example 602]	< 1	
COC(=O)N[C@H](C(=O)N1CC2(CC2)C[C@H]1c1nc2ccc(C#Cc3ccc(-c4cnc([C@@H]5CC6(CC6)CN5C(=O)[C@@H](NC(=O)OC)C(C)C)[nH]4)cc3)cc2[nH]1)c1ccccc1 [Example 592]	< 1	
COC(=O)N[C@H](C(=O)N1CCC[C@H]1c1ncc(-c2ccc(C#Cc3ccc4nc([C@@H]5CC6(CC6)CN5C(=O)[C@@H](NC(=O)OC)C(C)C)[nH]c4c3)cc2)[nH]1)c1ccccc1 [Example 595]	< 1	
COC(=O)N[C@H](C(=O)N1CC2(CC2)C[C@H]1c1ncc(-c2ccc(C#Cc3ccc4nc([C@@H]5CC6(CC6)CN5C(=O)[C@H](NC(=O)OC)c5ccc(Cl)cc5)[nH]c4c3)cc2)[nH]1)C(C)C [Example 650]		EC50 [2, 6]: 0.079 nM
COC(=O)N[C@H](C(=O)N1CC2(CC2)C[C@H]1c1ncc(-c2ccc(C#Cc3ccc4nc([C@@H]5CC6(CC6)CN5C(=O)[C@@H](NC(=O)OC)[C@@H](C)c5ccccc5)[nH]c4c3)cc2)[nH]1)C(C)C [Example 668]	< 1	
COC(=O)N[C@H](C(=O)N1CCC[C@H]1c1nc(-c2ccc3cc(-c4ccc5[nH]c([C@@H]6CC7(CC7)CN6C(=O)[C@@H](NC(=O)OC)C(C)C)nc5c4)cc(F)c3c2)c[nH]1)C(C)C [Example 608]	< 1	

Reference: patent US9765087B2, “Benzimidazole derivatives” (ENANTA PHARMACEUTICALS, INC., priority 2009, dated 2017)
